# Assay results: a melting point compilation (Tetko et al.; mined from patent text by program, amines drawn as free bases though some values may be those of a salt)
row,SMILES,melting point
1,O=S1(=O)c2ccccc2C(c2ccccc2)N1CCCN1CCN(c2ccc(F)cc2)CC1 (racemic),182 °C
2,O=C1C(=O)N(c2ccc(Cl)cc2)C(=O)N1c1ccccc1,154 °C
3,O=C(CCl)CCCc1ccc(CCCC(=O)CCl)cc1,70 to 71 °C
4,C=Cc1ccc2nnn(OS(=O)(=O)c3ccc(Cl)cc3)c2c1,125 °C
5,O=C1CC(c2ccc(OCc3ccccc3)cc2)=Nc2ccc(N3CCOCC3)cc21,320 to 323 °C
6,C=CCN1C2CCC1C1CCC2N1C(c1ccc(C(=O)N(C)C)cc1)c1cccc(OC)c1 (stereo not given),100 to 103 °C
7,N=C(CCCSc1nccc(NC(N)=NCC(F)(F)F)n1)NC(N)=O,112 to 115 °C
8,CC(C)c1c(CO)c(-c2ccc(F)cc2)c2n1CCCC2,97 to 99 °C
9,NC(=O)c1cnc(Oc2ccc(C3OCCO3)cc2F)cn1,169 to 172 °C
10,O=C(O)c1cccc2c1S(=O)(=O)c1ccccc1C2=O,237 °C
11,COc1ccc2ccc3c(c2c1)C(CC#N)CCO3 (stereo not given),122 to 123 °C
12,COc1cc2c(cc1OCc1ccccc1)CCN(Cc1cccc(OC)c1OC)C2,106 to 107 °C
13,CNC(=O)c1ccc(-c2ccc3oc(C4CCN(C(=O)OC(C)C)CC4)nc3c2)cc1C,151 to 154 °C
14,COc1cc(Nc2nccc(-c3sc(-c4cccnc4)nc3C)n2)cc(OC)c1,229 to 230 °C
15,O=C(O)CCn1c(=O)n(CCCCN2CCC(OC(c3ccccc3)c3ccccc3)CC2)c(=O)c2ccccc21,110 to 112 °C
16,CCn1c(C)c(C2(c3ccc(OC)cc3OC)OC(=O)c3cc(N(C)C)ccc32)c2ccccc21 (stereo not given),215 to 217 °C
17,COC(=O)CC(=O)C[C@H]1NC(=O)[C@@H]1N1C(=O)c2ccccc2C1=O,116 to 120 °C
18,N=C(Nc1ccccc1)Nc1ncccc1OCc1ccc(Cl)cc1,173 to 174 °C
19,C=CCc1c(OCCCSCc2nnn[nH]2)ccc(C(C)=O)c1O,129 to 132 °C
20,CCOC(=O)C1=C(NC(=O)Nc2cc(C(=O)OC(C)C)c(Br)cc2Br)CCC1,157 to 158 °C

row,SMILES,melting point
1,CC1(C)CCC(C)(C)c2cc(-c3cc(-c4ccc(C(=O)O)cc4)ccc3OCCCN)ccc21,243 °C
2,CC1(C)C(=N)N(CC(N)=O)c2ccccc21,167 to 173 °C
3,CC(C=Cc1ccccc1-c1cc2c(cc1C)C(C)(C)CCC2(C)C)=CC(=O)O,181 to 182 °C
4,COc1ccc(C(=O)CC(=O)c2ccc(O)cc2O)cc1OC,263 to 265 °C
5,C#CCCn1nnc2cc3c(=O)n(C(C)Cn4ncnn4)nnc3cc2c1=O (stereo not given),185 to 188 °C
6,CC(C)n1c(=O)n(C(=O)NCC2CCN(CC3(C(=O)O)CCC3)CC2)c2ccccc21,173 °C
7,COc1ccc(Cl)cc1CC1CNC(=O)CN(S(=O)(=O)c2ccc(Cl)cc2)C1=O (stereo not given),110 to 112 °C
8,COc1ccc(C#Cc2ccc(OC3CN4CCC3CC4)nn2)cc1 (stereo not given),163 to 165 °C
9,CC(=O)Nc1ccc(NC(=O)c2ccc(-c3[nH]nc4c3C(=O)c3c(NC(=O)NN5CCOCC5)cccc3-4)s2)cc1,253 to 254 °C
10,CC(C)(C)NC(=O)c1ccc(Cl)cc1,136 to 137 °C
11,CNC(=O)C(C)Oc1ccc(Oc2ccc(C(F)(F)F)cc2)cc1 (stereo not given),129 to 133 °C
12,CCOC(=O)c1csc(N2CCSCC2)n1,99 to 100 °C
13,Cc1c(CN2CCc3c(c4cccc(F)c4n3C)C2=O)ncn1C(=O)OCc1ccccc1,126 to 128 °C
14,CCCCC(C)C(O)CCc1cc(O)c(O)cc1Br (stereo not given),68 to 71 °C
15,CCCCCCCCCCCCCCOC(=O)CCC(=O)CCC(=O)OCC,43 °C
16,CC(C)NC(=O)C(C)CN(C)C (stereo not given),67 to 69 °C
17,Cc1c(F)c(N2CCC(n3cncn3)C2)c(F)c2c1c(=O)c(C(=O)O)cn2C1CC1 (stereo not given),207 to 210 °C
18,COc1ccccc1-n1nnc2cc(F)c(NC(C)=O)cc21,174 to 175 °C
19,CN1C(=O)c2c(c3c4ccccc4[nH]c3c3[nH]c4ccccc4c23)C1=O,> 350 °C
20,CCc1cc(C)cc(C)c1NC(=S)NC(C)(C)CC,105 to 107 °C

row,SMILES,melting point
1,COC(=O)c1ccccc1S(=O)(=O)NC(=O)Nc1nc(OC)cc(OC(F)(F)F)n1,141 to 143 °C
2,CCOP(=O)(OCC)c1c(-c2c(OC)ccc3ccccc23)c(C)c2c(c1-c1ccccc1)COC2,54.1 to 56 °C
3,CCc1nc2c(C)cc(C)nc2n1-c1ccc(CCNC(=O)NS(=O)(=O)c2cc3ccccc3s2)cc1,128 to 130 °C
4,Cc1nnc2n1-c1ccc(I)cc1C(c1ccccc1F)=NC2,235 to 238 °C
5,N#Cc1ccc2[nH]c(=O)c3ccccc3c(=O)c2c1,> 300 °C
6,O=C(NC1CCOCC1)c1ccc(-c2cc(-c3c[nH]nc3-c3ccccn3)ccn2)cc1,248 °C
7,CCOC(=O)CC(=O)c1cc(F)c(F)c(Br)c1Cl,47 to 51 °C
8,CC(=O)OCc1cc(COC(C)=O)n(C(c2ccccc2)(c2ccccc2)c2ccccc2)n1,119 to 121 °C
9,OCCCN1CC=C(c2cn(-c3ccc(F)cc3)c3ccc(C(F)(F)F)cc23)CC1,173 to 175 °C
10,CCCCCCCC(=O)NC(=O)OCc1nc(C(C)C)c(Sc2cc(Cl)cc(Cl)c2)n1Cc1ccncc1,139 to 141 °C
11,CCn1nc(C#N)cc1-c1cn(C(C)C)c2cc(NS(C)(=O)=O)ccc12,144 to 145 °C
12,CC[C@H]1CC[C@H](CCc2ccc(-c3ccc(C#N)cc3)c(F)c2)CC1,65.4 °C
13,CCOC(=O)c1csc(-c2ccc3c(=O)n(CC(C)C)c(CNC(=O)OCC4c5ccccc5-c5ccccc54)c(-c4ccccc4)c3c2)n1,151 to 152 °C
14,COc1cc2c(cc1Nc1ncc(Cl)c(Nc3ccc(N(C)C)cc3OC)n1)CCN(CCN1CCOCC1)CC2,115 °C
15,Cc1ccc2c(Cc3nc4c(F)c(F)cc(F)c4s3)cn(CC(=O)O)c2c1,211 to 213 °C
16,CN(C)c1cc(C(=O)CS(C)(=O)=O)cc(N(C)C)c1,151 to 153 °C
17,O=C1C(Cl)=C(Nc2ccc(O)cc2)C(=O)c2ccccc21,233 °C
18,COc1cc2c(cc1C(F)(F)F)N(C(=O)Nc1ccc3c(ccn3Cc3cccnc3)c1)CC2,243 to 246 °C

# Continued, values first:
row,melting point,SMILES
1,90 to 92 °C,CC(C)(C)c1ccc(OCC(O)CN2CCCC3(CSC4=C(O3)c3ccccc3C(=O)C4=O)C2)cc1 (stereo not given)
2,33 to 34 °C,CCc1occc(=O)c1OCc1ccccc1
3,123 to 125 °C,CC(C(=O)OCN1C(=O)CCC(N2C(=O)c3ccccc3C2=O)C1=O)N(C)C(=O)OC(C)(C)C (stereo not given)
4,188 to 190 °C,c1ccc2c(c1)CSc1nncn1-2
5,133 to 135 °C,C=Cc1cnc2c(NC(=O)c3c(Cl)cccc3Cl)cccc2c1CCO
6,90 to 92 °C,CN1CCC2(CC1)CN(c1ccccc1)c1ccccc12
7,178 to 180 °C,COc1nccc2c(=O)n(C)c(-c3ccc(OC4CCN(C5CCC5)CC4)cc3)nc12
8,158 to 160 °C,CCCS(=O)CC(=O)NNC(=O)N1Cc2ccccc2Oc2ccc(Cl)cc21 (stereo not given)
9,121 to 123 °C,Cc1ccc(S(=O)(=O)N(Cc2cc(C(C)(C)C)c(O)c(C(C)(C)C)c2)c2cccnc2)cc1
10,200 to 201 °C,Cc1oc(-c2ccccc2)nc1COc1ccc2c(-c3ccccc3)c(COc3nn(-c4ccccc4)cc3C(=O)O)oc2c1
11,168 to 169 °C,CCCCC(=O)c1c(-c2ccc3c(Cl)c(OCc4nnn[nH]4)ccc3c2)oc2ccccc12
12,214 to 215 °C,O=C(Nc1c[nH]nc1C(=O)NCCc1ccccc1)c1ccccn1
13,240 to 242 °C,C=C(Br)c1cc(O)cc2nc(-c3ccc(O)c(F)c3F)oc12
14,132 °C,O=C(N=c1sc2cc(OC(F)(F)F)ccc2n1CCN1CCN(c2ccccn2)CC1)C(F)(F)F
15,30 to 32 °C,CC(=O)c1noc2ccccc12
16,50.2 to 51.7 °C,COC(=O)CCc1ccc(OCCc2nc(-c3ccccc3)oc2C)cc1
17,104 to 106 °C,NC(=O)Cc1ccc(CCCOCCCCCCNCC(O)c2cc(Cl)c(N)c(Cl)c2)cc1 (stereo not given)
18,115 to 116 °C,COC(NC(C)=O)(C(=O)OC(C)(C)C)C(Br)Br (stereo not given)
19,87 to 88 °C,COc1cc(C)c(C(=O)c2c(OC)ccc(Br)c2Cl)c(OC)c1OC

row,melting point,SMILES
1,98 °C,Cc1nc(Cl)c(C#N)c2c1CCCC2
2,285 to 292 °C,Cc1ccc(Cc2ccc(-c3cnn4c(O)ncnc34)cc2)cc1
3,171 °C,Clc1c(CN[C@H]2CC[C@@H](c3ccccc3)CC2)ccn2c(CC3CC3)nnc12
4,205 to 206 °C,CCCCc1ccc(C(=O)Oc2ccc(C(=O)O)cc2)cc1C12CC3CC(CC(C3)C1)C2
5,141 to 143 °C,COC(=O)C1=Cc2cc(OCc3ccc(F)cc3)ccc2S(=O)(=O)CC1
6,111 to 114 °C,COc1ccc(-c2cc3cc(F)c(F)cc3[nH]2)cc1NC(=S)N[C@@H](COC(C)(C)C)C(=O)OC(C)(C)C
7,183 to 186 °C,COc1ccc2c(c1)CN(c1ccc3sccc3c1)C2=O
8,95 to 96 °C,CS(=O)(=O)c1cccnc1Oc1ccc(Cl)c(Cl)c1
9,164 to 166 °C,CNC(=O)c1ccc(N(CC(=O)OC(C)(C)C)C(=O)OC(C)(C)C)cc1
10,150 to 151 °C,CCCN(Cc1cccc(-c2noc(C)n2)c1)C(=O)Nc1ccc(-c2ccccc2S(=O)(=O)NC(C)(C)C)cc1
11,39 °C,CCCCCCc1cnc(-c2ccc(F)cc2)nc1
12,190 to 193 °C,COC(=O)c1cccc(C(=O)c2[nH]c3cc(Cl)ccc3c2NC(C)=O)c1
13,> 250 °C,Cc1cc(-c2ccc(C(F)(F)F)cc2)cc(-c2ccnc(-c3ccc(S(N)(=O)=O)s3)n2)n1
14,69 to 71 °C,CC(C)(C)OC(=O)NC(CO)C(=O)c1ccccc1 (stereo not given)
15,94 to 98 °C,CC(=O)c1c(C)c2ccccc2n1N
16,125 to 128 °C,Cc1c(-c2ccccc2)c(N2CC[C@H](N(C)C)C2)c2oc(N3CC(CC(=O)O)C3)nc2c1C#N
17,79 to 80 °C,CNC(NCCNCc1ccc(CN(C(C)C)C(C)C)o1)=C(C#N)C#N
18,110 °C,Oc1ccc(Cl)cc1C1(O)CCCCC1
